Results taken from US20080171792A1, “Use of highly concentrated formulations of 4-phenylbutyrate for treatment of certain disorders” (priority 2006, published 2008).

Key:
[1] = Storage of the concentrated aqueous solution at low temperature (freezing / precipitation); assay type: physicochemical
Method: Therefore, due to likely micelle formation of sodium 4-phenylbutyrate (which we term the self-associated polymeric form), the high concentration of about 500 mg/mL can be achieved in solution. […] This novel invention thus provides a dosage form better able to help the patients presently administered with a high volume dosage of sodium 4-phenylbutyrate. This invention is not intended to be limited by this discussion of micellar phases, or the presence or absence of other high concentration phases (such as sponge or L3, worm-like micelles, sheets and other laminar phases) that may be formed depending on the particular processing conditions and/or materials used. In the follow description the term “solution” is used without regard to whether a micellar phase is present. […] The mixture was cooled to 25° C. and 0.5 g of sodium benzoate was added and mixed well. […] Further cooling of this solution to about −4° C. caused precipitation.

[2] = system: histone deacetylase (HDAC); settings: cited from earlier work
[3] = Solubility / achievable concentration of sodium 4-phenylbutyrate in water; assay type: physicochemical; settings: supersaturated solution in aqueous medium
Method: This art-reported solubility is believed to pertain to the maximum solubility of the monomeric form of sodium 4-phenylbutyrate in water. As described in more detail below, a process has been identified of preparing a highly concentrated solution of sodium 4-phenylbutyrate, having a concentration 500 mg/mL in water by dissolving 5 g of sodium 4-phenylbutyrate in about 3.5 mL water to yield a solution volume of about 10 mL. The temperature can be room temperature (25° C.) or an elevated temperature, preferably in the range of up to about 80° C. The solution can be made at a higher temperature and then cooled to room temperature without precipitating resulting.

[4] = high dosage of about 20 g a day; cited from earlier work

O=C([O-])CCCc1ccccc1.[Na+] [sodium 4-phenylbutyrate]
freezing of the solution ([1]; 600 mg/mL solution at 0° C.): does not freeze
temperature at which precipitation is observed on further cooling ([1]; about 500 mg/mL solution): −40 °C
freezing or precipitation upon storage ([1]; about 500 mg/mL solution, 0° C. for two days): did not freeze or precipitate out
inhibition of histone deacetylase (HDAC) [2]: efficient inhibitor
maximum drug concentration achieved in the formulation [3]: about 700 mg/mL
tolerability [4]: well tolerated
